One assay addresses T1, human cathepsin L (Homo sapiens, UniProt P07711).
T1 construct: purchased R&D Systems
In words: Cathepsin L assay (Z-FR-AMC fluorescence). The note with it: 10 pM human cathepsin L, 30 mins preincubation, Z-FR-AMC 2 μM. It counts as biochemical. A digest of the protocol:
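IC50 values were taken from four-parameter fits of fluorescence read at 355/460 nm every 2 minutes for 30 minutes. The reaction started when 2 μM Z-FR-AMC was added. Before that, 10 pM human cathepsin L had been preincubated with inhibitor for 30 minutes.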

Assay [1] has as its system human beta-coronavirus OC43. In words: OC43 coronavirus antiviral assay in HeLa cells (cytopathic effect, cell-titer-glo). It is filed as cell-based. The note with it: Betacoronavirus 1, OC43, HeLa, 144 h, 6 days at 33° C. On the technique in general: Cytopathic effects are the visible damage that an infection or toxin causes in cultured cells.
The subject of assay [2] is B.1.1.7 lineage SARS-CoV-2. In words: microbe, parasite or virus in culture. As to conditions: Severe acute respiratory syndrome coronavirus 2, 96 h, read-out: A549-dual_ACE2_TMPRSS2 (EC50). It is filed as cell-based.
The target in another assay is T2, HRV3C (Human rhinovirus 14, UniProt P03303).
T2 construct: 3CLpro and HRV3C was added using a Multidrop Combi
In words: biochemical. Set-up: species or system HRV. The note with it: HRV3C, 30 mins preincubation, SAMDI-MS.

In another assay the target is T3, SARS-Cov-2 3CLpro (Severe acute respiratory syndrome coronavirus 2, UniProt P0DTD1).
T3 construct: 3CLpro and HRV3C was added using a Multidrop Combi
The assay is described as follows: biochemical. As to conditions: 3CLpro, 30 mins preincubation, SAMDI-MS; read-out: SARS-Cov-2 IC50 (class).

Assay [3] deals with SARS-CoV-2-GHB-03021/2020. It is filed as cell-based. As to conditions: read-out: VeroE6 + CP (EC50).

Where two headings read alike, the source gives them in different places.

T2 sequence (P03303 1538-1719): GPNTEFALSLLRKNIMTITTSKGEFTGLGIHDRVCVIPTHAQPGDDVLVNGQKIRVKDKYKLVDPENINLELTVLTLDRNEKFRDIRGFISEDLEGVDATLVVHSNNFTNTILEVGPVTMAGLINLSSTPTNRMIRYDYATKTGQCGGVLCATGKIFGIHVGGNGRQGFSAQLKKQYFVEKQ
T1 sequence (P07711 114-333): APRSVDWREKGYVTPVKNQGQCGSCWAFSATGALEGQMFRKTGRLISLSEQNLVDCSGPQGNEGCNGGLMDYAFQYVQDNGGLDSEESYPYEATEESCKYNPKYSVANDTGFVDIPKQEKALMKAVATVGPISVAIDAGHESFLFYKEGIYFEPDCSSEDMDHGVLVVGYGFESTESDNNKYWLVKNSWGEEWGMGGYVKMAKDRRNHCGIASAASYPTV

As a reminder, the IC50 is the point on the concentration scale where inhibition reaches its midpoint. For orientation: EC50 means the concentration giving half of the maximal effect. As to `CC(C)(C)[C@H](NC(=O)C(F)(F)F)C(=O)N1C[C@@H]2[C@H]3C[C@@H]([C@@H]2[C@H]1C(=O)N[C@H](C#N)C[C@@H]1CCNC1=O)[C@H](O)C3` [Example 85, (1S,2R,3S,6R,7S,9R)—N-[(1S)-1-cyano-2-[(3S)-2-oxopyrrolidin-3-yl]ethyl]-4-[(2S)-3,3-dimethyl-2-(2,2,2-trifluoroacetamido)butanoyl]-9-hydroxy-4-azatricyclo[5.2.1.0^{2,6}]decane-3-carboxamide], the IC50 against human cathepsin L was not below 10 µM; at HRV3C (read-out: HRV IC50 (bound)) it was more than 10 µM; on SARS-Cov-2 3CLpro, 0.2 to 2 µM. Besides, the EC50 was more than 10 µM in assay [1] (read-out: EC50 (bound)); more than 10 µM in assay [2] ([…], numeric bounds given instead of class symbols); 10 to 50 µM in assay [3].

Regarding `CC(C)(C)[C@H](NC(=O)C(F)(F)Cl)C(=O)N1C[C@@H]2[C@@H]3CC[C@@H](C3)[C@@H]2[C@H]1C(=O)N[C@H](C#N)C[C@@H]1CCNC1=O` [Example 40, (1S,2S,3S,6R,7R)-4-[(2S)-2-(2-chloro-2,2-difluoroacetamido)-3,3-dimethylbutanoyl]-N-[(1S)-1-cyano-2-[(3S)-2-oxopyrrolidin-3-yl]ethyl]-4-azatricyclo[5.2.1.0^{2,6}]decane-3-carboxamide], the figures for the IC50 at human cathepsin L, on HRV3C (read-out: HRV IC50 (bound)) and on SARS-Cov-2 3CLpro were not below 10 µM, more than 10 µM and less than 0.02 µM, respectively. Further, the EC50 in assay [1] (read-out: EC50 (class)), in assay [2] and in assay [3] was less than 0.1 µM in each case.

In the case of `CC(C)(C)[C@H](NC(=O)C(F)(F)F)C(=O)N1C[C@H]2[C@@H]([C@H]1C(=O)N[C@H](C#N)C[C@@H]1CCCNC1=O)[C@H]1C=C[C@@H]2C1` [Example 16, (1S,3aR,4S,7R,7aS)-N-((S)-1-cyano-2-((S)-2-oxopiperidin-3-yl)ethyl)-2-((S)-3,3-dimethyl-2-(2,2,2-trifluoroacetamido)butanoyl)-2,3,3a,4,7,7a-hexahydro-1H-4,7-methanoisoindole-1-carboxamide], the IC50 was not below 10 µM against human cathepsin L, more than 10 µM at HRV3C (read-out: HRV IC50 (bound)) and less than 0.02 µM at SARS-Cov-2 3CLpro. In addition, the EC50 in assay [1] (read-out: EC50 (class)), in assay [2] and in assay [3] was less than 0.1 µM in each case.

For the compound `CC(C)(C)[C@H](NC(=O)C1CC12CC2)C(=O)N1C[C@H]2[C@@H]([C@H]1C(=O)N[C@H](C#N)C[C@@H]1CCNC1=O)[C@H]1C=C[C@@H]2C1` (stereo partly drawn) [Example 34, (1R,2S,3S,6R,7S)—N-[(1S)-1-cyano-2-[(3S)-2-oxopyrrolidin-3-yl]ethyl]-4-[(2S)-3,3-dimethyl-2-{spiro[2.2]pentan-1-ylformamido}butanoyl]-4-azatricyclo[5.2.1.0^{2,6}]dec-8-ene-3-carboxamide], the IC50 at human cathepsin L was not below 10 µM; on HRV3C (read-out: HRV IC50 (bound)), more than 10 µM; at SARS-Cov-2 3CLpro it was less than 0.02 µM. Also, the EC50 in assay [1] (read-out: EC50 (class)) is less than 0.1 µM; in assay [2] it was 0.1 to 1 µM; in assay [3], less than 0.1 µM.

Take `CC(C)(C)[C@H](NC(=O)C(F)(F)F)C(=O)N1C[C@H]2[C@@H]([C@H]1C(=O)N[C@H](C#N)CC1Cn3nccc3NC1=O)[C@H]1C=C[C@@H]2C1` (stereo partly drawn) [Example 9, (1S,3aR,4S,7R,7aS)—N-((1S)-1-cyano-2-(5-oxo-4,5,6,7-tetrahydropyrazolo[1,5-a]pyrimidin-6-yl)ethyl)-2-((S)-3,3-dimethyl-2-(2,2,2-trifluoroacetamido)butanoyl)-2,3,3a,4,7,7a-hexahydro-1H-4,7-methanoisoindole-1-carboxamide]: the 50% inhibitory concentration (IC50) against human cathepsin L is not below 10 µM; on HRV3C (read-out: HRV IC50 (bound)), more than 10 µM; on SARS-Cov-2 3CLpro, less than 0.02 µM. Also, the results for the EC50 in assay [1] (read-out: EC50 (class)), in assay [2] and in assay [3] were less than 0.1 µM, 0.1 to 1 µM and less than 0.1 µM, respectively.

Turning to `[2H][C@@H]1[C@H]([2H])[C@@H]2C[C@H]1[C@H]1[C@@H]2CN(C(=O)[C@@H](NC(=O)C(F)(F)F)C(C)(C)C)[C@@H]1C(=O)N[C@H](C#N)C[C@@H]1CCNC1=O` [Example 32, (1S,3aR,4R,5S,6R,7S,7aS)-N-((S)-1-cyano-2-((S)-2-oxopyrrolidin-3-yl)ethyl)-2-((S)-3,3-dimethyl-2-(2,2,2-trifluoroacetamido)butanoyl)octahydro-1H-4,7-methanoisoindole-5,6-d^2-1-carboxamide], the IC50 is not below 10 µM at human cathepsin L, more than 10 µM at HRV3C (read-out: HRV IC50 (bound)) and less than 0.02 µM at SARS-Cov-2 3CLpro. Besides, the concentration giving a half-maximal response (EC50) in assay [1] (read-out: EC50 (class)), in assay [2] and in assay [3] was less than 0.1 µM throughout.

As for `CC(C)(C)[C@H](NC(=O)c1ccco1)C(=O)N1C[C@H]2[C@@H]([C@H]1C(=O)N[C@H](C#N)C[C@@H]1CCNC1=O)[C@H]1C=C[C@@H]2C1` [Example 19, (1S,3aR,4S,7R,7aS)-N-((S)-1-cyano-2-((S)-2-oxopyrrolidin-3-yl)ethyl)-2-((S)-2-(furan-2-carboxamido)-3,3-dimethylbutanoyl)-2,3,3a,4,7,7a-hexahydro-1H-4,7-methanoisoindole-1-carboxamide], the values for the IC50 against human cathepsin L, on HRV3C (read-out: HRV IC50 (bound)) and on SARS-Cov-2 3CLpro were not below 10 µM, more than 10 µM and 0.02 to 0.2 µM, respectively. Besides, the figures for the EC50 in assay [1] (read-out: EC50 (class)), in assay [2] and in assay [3] were less than 0.1 µM, 0.1 to 1 µM and 0.1 to 1 µM, respectively.

For the compound `CN1CC(C[C@@H](C#N)NC(=O)[C@@H]2[C@@H]3[C@H](CN2C(=O)[C@@H](NC(=O)C(F)(F)F)C(C)(C)C)[C@@H]2C=C[C@H]3C2)C(=O)N1` (stereo partly drawn) [Compound 49, (1S,3aR,4S,7R,7aS)-N-((S)-1-cyano-2-(1-methyl-3-oxopyrazolidin-4-yl)ethyl)-2-((S)-3,3-dimethyl-2-(2,2,2-trifluoroacetamido)butanoyl)-2,3,3a,4,7,7a-hexahydro-1H-4,7-methanoisoindole-1-carboxamide], the concentration for half-maximal inhibition (IC50) against human cathepsin L is not below 10 µM; at HRV3C (read-out: HRV IC50 (bound)), more than 10 µM; on SARS-Cov-2 3CLpro, less than 0.02 µM. Further, the EC50 in assay [1] (read-out: EC50 (class)), in assay [2] and in assay [3] was 0.1 to 1 µM in each case.

In the case of `O=C(NC1CC1)C(=O)C(C[C@@H]1CCNC1=O)NC(=O)[C@@H]1[C@@H]2[C@H](CN1C(=O)c1cc3c(Cl)cc(Cl)cc3[nH]1)[C@@H]1C=C[C@H]2C1` (stereo partly drawn) [Compound 46, (1S,3aR,4S,7R,7aS)—N-(4-(cyclopropylamino)-3,4-dioxo-1-((S)-2-oxopyrrolidin-3-yl)butan-2-yl)-2-(4,6-dichloro-1H-indole-2-carbonyl)-2,3,3a,4,7,7a-hexahydro-1H-4,7-methanoisoindole-1-carboxamide], the IC50 is not below 10 µM against human cathepsin L, 0.2 to 2 µM on HRV3C (read-out: HRV IC50 (class)) and less than 0.02 µM on SARS-Cov-2 3CLpro. Also, the EC50 in assay [1] (read-out: EC50 (class)), in assay [2] and in assay [3] was 0.1 to 1 µM in each case.

`CC(C)(C)C(C(=O)N1C[C@H]2[C@@H]([C@H]1C(=O)N[C@H](C#N)C[C@@H]1CCNC1=O)[C@H]1C=C[C@@H]2C1)n1cc(C(F)(F)F)nn1` (stereo partly drawn) [Compound 42, (1S,3aR,4S,7R,7aS)-N-((S)-1-cyano-2-((S)-2-oxopyrrolidin-3-yl)ethyl)-2-(3,3-dimethyl-2-(4-(trifluoromethyl)-1H-1,2,3-triazol-1-yl)butanoyl)-2,3,3a,4,7,7a-hexahydro-1H-4,7-methanoisoindole-1-carboxamide]: the IC50 is not below 10 µM at human cathepsin L, more than 10 µM on HRV3C (read-out: HRV IC50 (bound)) and 0.02 to 0.2 µM at SARS-Cov-2 3CLpro. For the same compound, the EC50 in assay [1] (read-out: EC50 (class)), in assay [2] and in assay [3] was 0.1 to 1 µM in each case.

In the case of `CC(C)(C)[C@H](NC(=O)[C@@H]1CC1(F)F)C(=O)N1C[C@H]2[C@@H]([C@H]1C(=O)N[C@H](C#N)C[C@@H]1CCNC1=O)[C@H]1C=C[C@@H]2C1` [Compound 41], the results for the 50% inhibitory concentration (IC50) at human cathepsin L, on HRV3C (read-out: HRV IC50 (bound)) and on SARS-Cov-2 3CLpro were not below 10 µM, more than 10 µM and less than 0.02 µM, respectively. The EC50 in assay [1] (read-out: EC50 (class)), in assay [2] and in assay [3] was less than 0.1 µM throughout.

On to `CC(C)(C)[C@H](NC(=O)C(F)(F)F)C(=O)N1C[C@@H]2[C@H]3C[C@@H]([C@@H]2[C@H]1C(=O)N[C@H](C#N)C[C@@H]1CCNC1=O)[C@H]1[C@@H]3C1(F)F` [Example 23, (1S,2S,3S,6R,7R,8R,10S)—N-[(1S)-1-cyano-2-[(3S)-2-oxopyrrolidin-3-yl]ethyl]-4-[(2S)-3,3-dimethyl-2-(2,2,2-trifluoroacetamido)butanoyl]-9,9-difluoro-4-azatetracyclo[5.3.1.0^{2,6}0.0^{8,10}]undecane-3-carboxamide], for which the figures for the IC50 against human cathepsin L, on HRV3C (read-out: HRV IC50 (bound)) and at SARS-Cov-2 3CLpro were not below 10 µM, more than 10 µM and 0.02 to 0.2 µM, respectively. Besides, the EC50 in assay [1] (read-out: EC50 (class)) lay in the range of 1 to 10 µM; in assay [2], 0.1 to 1 µM; in assay [3] it was 0.1 to 1 µM.

As to `CC(C)(C)[C@H](NC(=O)C(F)(F)F)C(=O)N1C[C@H]2[C@@H]([C@H]1C(=O)N[C@H](C#N)C[C@@H]1CCNC1=O)[C@H]1CC[C@@H]2O1` (mixture of isomers) [Compound 58, (1S,3aR,4S,7R,7aS)-N-((S)-1-cyano-2-((S)-2-oxopyrrolidin-3-yl)ethyl)-2-((S)-3,3-dimethyl-2-(2,2,2-trifluoroacetamido)butanoyl)octahydro-1H-4,7-epoxyisoindole-1-carboxamide], the IC50 on human cathepsin L is not below 10 µM; at HRV3C (read-out: HRV IC50 (bound)), more than 10 µM; on SARS-Cov-2 3CLpro it was 0.2 to 2 µM. The EC50 in assay [1] (read-out: EC50 (class)), in assay [2] and in assay [3] was 1 to 10 µM throughout.

Source of the values: patent publication US12252481B2, “Anti-viral compounds” (Aligos Therapeutics, Inc., priority 2021, dated 2025).
